What is called Ki is a measure of affinity in units of concentration, obtained from inhibition or displacement.

The structures appear in SMILES notation.

Chain of human H4 receptor (Q9H3N8 whole entry): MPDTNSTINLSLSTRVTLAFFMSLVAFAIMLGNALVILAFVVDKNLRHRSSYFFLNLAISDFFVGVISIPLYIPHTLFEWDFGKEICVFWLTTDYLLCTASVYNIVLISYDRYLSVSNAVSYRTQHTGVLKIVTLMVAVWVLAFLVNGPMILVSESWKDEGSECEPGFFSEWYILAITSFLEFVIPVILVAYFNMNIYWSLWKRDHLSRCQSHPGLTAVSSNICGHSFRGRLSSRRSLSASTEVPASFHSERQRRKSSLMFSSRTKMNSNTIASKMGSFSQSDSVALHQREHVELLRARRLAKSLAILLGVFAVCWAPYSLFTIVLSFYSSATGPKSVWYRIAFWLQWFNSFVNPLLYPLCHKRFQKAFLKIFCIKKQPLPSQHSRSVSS

This test concerns the target human H4 receptor (Homo sapiens (Human), UniProt Q9H3N8). Description: Binding assay on recombinant human histamine H4 receptor ([3H]histamine competition, SK-N-MC cell membranes). Conditions: membranes harvested with cell harvester; [3H]histamine 10 nM; average of results; read-out: Cell Harvester Ki. An outline of the steps:
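Membranes from SK-N-MC cells stably or transiently transfected with human H4 receptor, prepared by homogenization and 30,000 g centrifugation in Tris/EDTA. Bound [3H]histamine separated by rapid filtration on PEI-treated GF/C filters, washed with ice-cold Tris/EDTA, counted by scintillation. '>' values denote highest concentration tested.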
`CN[C@@H]1CCN(c2cnnc(NCc3ccccc3)c2)C1` [Example 397, N-Benzyl-5-[(3R)-3-(methylamino)pyrrolidin-1-yl]pyridazin-3-amine]: the Ki was 353 nM.

Turning to `CN[C@@H]1CCN(c2cnnc(NCc3ccc(F)cc3)c2)C1` [Example 398, N-(4-Fluorobenzyl)-5-[(3R)-3-(methylamino)pyrrolidin-1-yl]pyridazin-3-amine], the inhibitory constant (Ki) stood at 347 nM.

Regarding `CN[C@H]1CCN(c2cnnc(NCc3ccc(F)cc3)c2)C1` [Example 399, N-(4-Fluorobenzyl)-5-[(3S)-3-(methylamino)pyrrolidin-1-yl]pyridazin-3-amine], the Ki was 3940 nM.

As for `CN[C@@H]1CCN(c2cnnc(NCc3ccc(OC)cc3)c2)C1` [Example 400, N-(4-Methoxybenzyl)-5-[(3R)-3-(methylamino)pyrrolidin-1-yl]pyridazin-3-amine], the Ki amounted to 2150 nM.

For `CN[C@@H]1CCN(c2cnnc(N[C@H](C)c3ccccc3)c2)C1` [Example 401, 5-[(3R)-3-(Methylamino)pyrrolidin-1-yl]-N-[(1R)-1-phenylethyl]pyridazin-3-amine], the Ki was 79.3 nM.

Turning to `CN[C@H]1CCN(c2cnnc(NCCCO)c2)C1` [Example 403, 3-({5-[(3S)-3-(Methylamino)pyrrolidin-1-yl]pyridazin-3-yl}amino)propan-1-ol], the Ki was > 10000 nM.

Turning to `CN1CCN(c2cnnc(NCC(C)(C)C)c2)CC1` [Example 404, 5-(4-methylpiperazin-1-yl)-N-neopentylpyridazin-3-amine dihydro chloride], the Ki stood at 4300 nM.

Consider `COCCNc1cc(N2CCN(C)CC2)cnn1` [Example 405, N-(2-Methoxyethyl)-5-(4-methylpiperazin-1-yl)pyridazin-3-amine], for which the Ki was > 10000 nM.

On to `CN1CCN(c2cnnc(NC3CC4CCC3C4)c2)CC1` (centres unmarked) [Example 406, N-Bicyclo[2.2.1]hept-2-yl-5-(4-methylpiperazin-1-yl)pyridazin-3-amine], for which the Ki was 178 nM.

As for `CN1CCN(c2cnnc(NC3CCCC3)c2)CC1` [Example 407, N-Cyclopentyl-5-(4-methylpiperazin-1-yl)pyridazin-3-amine], the Ki stood at 824 nM.

Consider `CN1CCN(c2cnnc(NCC3CCCC3)c2)CC1` [Example 408, N-(Cyclopentylmethyl)-5-(4-methylpiperazin-1-yl)pyridazin-3-amine], for which the Ki is > 10000 nM.

Consider `CN1CCN(c2cnnc(NCCc3ccccc3)c2)CC1` [Example 409, 5-(4-Methylpiperazin-1-yl)-N-(2-phenylethyl)pyridazin-3-amine], for which the Ki is > 10000 nM.

Regarding `CN1CCN(c2cnnc(NCc3ccccc3)c2)CC1` [Example 410, N-Benzyl-5-(4-methylpiperazin-1-yl)pyridazin-3-amine], the Ki is > 10000 nM.

`CN[C@@H]1CCN(c2cnnc(NC3CCCC3)c2)C1` [Example 412, N-cyclopentyl-5-[(3R)-3-(methylamino)pyrrolidin-1-yl]pyridazin-3-amine]: the Ki came out at 5.6 nM.
